{"source": "ChEMBL document CHEMBL3227995", "about": "“Synthesis of aza homologues of folic acid” (J Med Chem, 1979)", "key": {"CCRF-CEM [1]": {"system": "CCRF-CEM", "assay": "Cytotoxicity against human CCRF-CEM cells at 10 ug/ml", "format": "functional, cell-based"}, "Lacticaseibacillus casei [2]": {"system": "Lacticaseibacillus casei", "assay": "Antimicrobial activity against Lactobacillus casei ATCC 7469 at 2 ug/ml", "format": "functional, organism-based"}, "[3]": {"molecular_target": "T1, Thymidylate synthase (Lactobacillus casei) (UniProt P00469)", "T1 sequence (whole entry)": "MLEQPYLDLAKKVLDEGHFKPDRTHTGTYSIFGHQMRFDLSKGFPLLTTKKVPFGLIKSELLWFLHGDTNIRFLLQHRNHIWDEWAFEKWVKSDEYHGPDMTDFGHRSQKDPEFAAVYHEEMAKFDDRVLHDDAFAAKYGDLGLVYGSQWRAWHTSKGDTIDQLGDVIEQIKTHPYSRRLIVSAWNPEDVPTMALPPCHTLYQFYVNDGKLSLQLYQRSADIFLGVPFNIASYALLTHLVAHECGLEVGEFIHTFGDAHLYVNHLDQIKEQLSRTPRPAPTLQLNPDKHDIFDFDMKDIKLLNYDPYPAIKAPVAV", "assay": "Inhibition of Lactobacillus casei thymidylate synthetase", "conditions": "Lacticaseibacillus casei"}, "Enterococcus faecium": {"system": "Enterococcus faecium", "assay": "Increase of Streptococcus faecium ATCC 8043 growth relative to folic acid", "format": "functional"}, "Pediococcus": {"system": "Pediococcus", "assay": "Increase of Pediococcus cerevisiae ATCC 8081 growth relative to leucovorin", "format": "functional"}, "L1210": {"system": "L1210", "assay": "Antitumor activity against mouse L1210 cells allografted in BDF1 mouse assessed as increase of life span at non-toxic dosed administered as ip on day 1, 4 and 7", "format": "functional, organism-based"}, "Mus musculus": {"system": "Mus musculus", "assay": "Toxicity in mouse L1210 cells allografted BDF1 mouse at 60 mg/kg, ip", "format": "organism-based", "design": "dose 60 mg/kg, route intraperitoneal", "conditions": "in vivo"}, "Lacticaseibacillus casei [4]": {"system": "Lacticaseibacillus casei", "assay": "Antimicrobial activity against Lactobacillus casei ATCC 7469", "format": "functional", "conditions": "read-out: ID50 (the source's name)"}, "CCRF-CEM [5]": {"system": "CCRF-CEM", "assay": "Cytotoxicity against human CCRF-CEM cells", "format": "functional", "conditions": "read-out: ID50 (the source's name)"}}, "note": "Active and inactive are the calls of the source. No cut-off for these calls is given here.", "data": [{"smiles": "COC(=O)CC[C@H](NC(=O)Nc1ccc(/N=C/c2cnc3nc(NC(C)=O)[nH]c(=O)c3n2)cc1)C(=O)OC", "values": [{"measurement": "Activity", "setting": "CCRF-CEM [1]", "value": "inactive"}, {"measurement": "Activity", "setting": "Lacticaseibacillus casei [2]", "value": "inactive"}]}, {"smiles": "COC(=O)CC[C@H](NC(=O)Nc1ccc(NCc2cnc3nc(NC(C)=O)[nH]c(=O)c3n2)cc1)C(=O)OC", "values": [{"measurement": "Activity", "setting": "CCRF-CEM [1]", "value": "inactive"}, {"measurement": "Activity", "setting": "Lacticaseibacillus casei [2]", "value": "inactive"}]}, {"smiles": "COC(=O)C[C@H](NC(=O)Nc1ccc(/N=C/c2cnc3nc(NC(C)=O)[nH]c(=O)c3n2)cc1)C(=O)OC", "values": [{"measurement": "Activity", "setting": "CCRF-CEM [1]", "value": "inactive"}, {"measurement": "Activity", "setting": "Lacticaseibacillus casei [2]", "value": "inactive"}]}, {"smiles": "COC(=O)C[C@H](NC(=O)Nc1ccc(NCc2cnc3nc(NC(C)=O)[nH]c(=O)c3n2)cc1)C(=O)OC", "values": [{"measurement": "Activity", "setting": "CCRF-CEM [1]", "value": "inactive"}, {"measurement": "Activity", "setting": "Lacticaseibacillus casei [2]", "value": "inactive"}]}, {"smiles": "Nc1nc2ncc(CNc3ccc(NC(=O)NC(CCC(=O)O)C(=O)O)cc3)nc2c(=O)[nH]1", "note": "(racemic)", "values": [{"measurement": "Activity", "setting": "CCRF-CEM [1]", "value": "inactive"}, {"measurement": "Activity", "setting": "Lacticaseibacillus casei [2]", "value": "inactive"}, {"measurement": "ID50", "setting": "[3]", "value": 1.8, "unit": "×10⁻⁴ M"}, {"measurement": "Activity", "setting": "Enterococcus faecium", "value": 2, "unit": "%"}, {"measurement": "Activity", "setting": "Pediococcus", "value": 0.5, "unit": "%"}, {"measurement": "Activity", "setting": "L1210", "value": "inactive"}, {"measurement": "Activity", "setting": "Mus musculus", "value": "Toxic"}]}, {"smiles": "Nc1nc2ncc(CNc3ccc(NC(=O)NC(CC(=O)O)C(=O)O)cc3)nc2c(=O)[nH]1", "note": "(racemic)", "values": [{"measurement": "Activity", "setting": "CCRF-CEM [1]", "value": "inactive"}, {"measurement": "IC50", "setting": "Lacticaseibacillus casei [4]", "value": 1.6, "unit": "µg/mL"}, {"measurement": "ID50", "setting": "[3]", "value": 1.8, "unit": "×10⁻⁴ M"}, {"measurement": "Activity", "setting": "L1210", "value": "inactive"}, {"measurement": "Activity", "setting": "Mus musculus", "value": "Toxic"}]}, {"smiles": "CN(Cc1cnc2nc(N)nc(N)c2n1)c1ccc(C(=O)N[C@@H](CCC(=O)O)C(=O)O)cc1", "note": "[METHOTREXATE]", "values": [{"measurement": "IC50", "setting": "CCRF-CEM [5]", "value": 0.02, "unit": "µg/mL"}, {"measurement": "IC50", "setting": "Lacticaseibacillus casei [4]", "value": 0.01, "unit": "µg/mL"}]}]}
